Patent US8962689B2, “Medium chain dicarboxylic acids, their derivates and metabolic disorders” (Nestec S.A., priority 2008, dated 2015)

How the values were obtained:
Format in all cases: in vivo, human
healthy subjects = experiment: Cross-over single-blind pilot study, mixed formula meal with sebacic acid (C10), healthy subjects; conditions: for Glucose AUC / Insulin AUC / Total ISR (insulin secretion rate): 0-420 minutes, mean
Protocol: (§1) Ingestion of the different meals was performed at 100 min.
(§2) The acute effects of oral ingestion of sebacic acid on postprandial glycemia, hepatic gluconeogenesis and glycogenolysis were tested in T2D subjects and healthy volunteers during ingestion of a mixed meal at breakfast.
(§3) Type 2 diabetic patients and healthy subjects were matched for gender distribution, age, and body mass index as reported in the following table 1:
(§4) The subjects ingested the following formula meal
(§5) No C10 group (control group): 50% CHO, 15% protein and 35% lipids plus water
(§6) 10 g C10 group: 50% CHO, 15% protein and 35% lipids plus 10 g of C10 plus water

T2D subjects = experiment: Cross-over single-blind pilot study, mixed formula meal with sebacic acid (C10), T2D subjects; conditions: for EGP (endogenous glucose production) / Gluconeogenesis / Glucose clearance / Total Ra (rate of appearance of deuterated glucose) / Glucose AUC / Insulin AUC / Total ISR (insulin secretion rate): type 2 diabetic subjects; for Glucose AUC / Insulin AUC / Total ISR (insulin secretion rate): 0-420 minutes, mean
Protocol: as §1, §2, §3, §4, §5, §6

[1] = Time course of plasma sebacate in healthy subjects
Protocol: FIG. 4 reports the time course of plasma sebacate in healthy subjects.
FIG. 4 reports the time course of plasma sebacate in healthy subjects. The peak was reached after 320 minutes from the beginning of the experiment, i.e. […] after the ingestion of the meal enriched with C10. C10 peaked later (delay of 40 minutes) after 23 g C10 ingestion.

[2] = Time course of plasma sebacate in T2D subjects
Protocol: FIG. 5 reports the time course of plasma sebacate in T2D subjects.
FIG. 5 reports the time course of plasma sebacate in T2D subjects. […] Another difference was that in diabetics the two curves (10 g vs. 23 g) were overlapped up to 320 minutes, and then the concentration of C10 declined slower in the 23 g C10 fed patients compared with 10 g of C10.

[3] = healthy subjects, 10 g C10 meal
[4] = healthy subjects, 23 g C10 meal
[5] = T2D subjects (n=10), 10 g meal, vs control meal
[6] = T2D subjects (n=10), 23 g C10 DA meal, vs control meal

## O=C(O)CCCCCCCCC(=O)O [C10, sebacic acid]
Healthy subjects; healthy subjects (n=10), 23 g sebacic acid, vs control meal
  Change in postprandial insulinemia AUC: −38%
Healthy subjects; [3]
  EGP (endogenous glucose production): 6.30 ± 2.45 μmol · min^−1 · kgffm^−1
  Gluconeogenesis: 31.28 ± 5.07%
  Glucose clearance: 2.73 ± 0.24 mL/min/kg
  Total Ra (rate of appearance of deuterated glucose): 20.60 ± 2.88 μmol · min^−1 · kgffm^−1
  Glucose AUC: 37400 mg·min/dL
  Insulin AUC: 51100 pM·min
  Total ISR (insulin secretion rate): 101.15 nmol
Healthy subjects; [4]
  EGP (endogenous glucose production): 6.172 ± 0.68 μmol · min^−1 · kgffm^−1
  Gluconeogenesis: 31.20 ± 3.63%
  Glucose clearance: 2.74 ± 0.26 mL/min/kg
  Total Ra (rate of appearance of deuterated glucose): 21.20 ± 1.30 μmol · min^−1 · kgffm^−1
  Glucose AUC: 38100 mg·min/dL
  Insulin AUC: 39200 pM·min
  Total ISR (insulin secretion rate): 93.60 nmol
Healthy subjects; healthy subjects, C10 ingestion
  Glucose clearance, result in words: significantly improved
Healthy subjects; healthy subjects, meal with lipids substituted with 23 g C10
  ISR, result in words: significantly reduced
T2D subjects; [5]
  Change in postprandial Endogenous Glucose Production: −10%
  Change in postprandial Gluconeogenesis (%): −2.1%
  Change in postprandial glycemia area under the curve (AUC): −17%
  Increase in postprandial glucose clearance: +12.6%
T2D subjects; [6]
  Change in postprandial Endogenous Glucose Production: −9%
  Change in postprandial Gluconeogenesis (%): −2.3%
  Change in postprandial glycemia area under the curve (AUC): −16%
  Change in postprandial insulin secretion rate: −35%
  Increase in postprandial glucose clearance: +8.2%
T2D subjects; diabetic patients, C10 ingestion
  Glucose clearance, result in words: significantly improved
T2D subjects; diabetic patients, both C10 enriched meals
  GNG, result in words: significantly reduced
T2D subjects; diabetic patients, meal containing 10 g of C10
  Glucose AUC, result in words: significantly lower
T2D subjects; diabetic patients, meal with lipids substituted with 23 g C10
  ISR, result in words: significantly reduced
T2D subjects; 10 g C10 meal
  EGP (endogenous glucose production): 7.81 ± 3.27 μmol · min^−1 · kgffm^−1
  Gluconeogenesis: 40.862 ± 3.62 %
  Glucose clearance: 1.76 ± 0.13 mL/min/kg
  Total Ra (rate of appearance of deuterated glucose): 19.60 ± 2.41 μmol · min^−1 · kgffm^−1
  Glucose AUC: 43700 mg·min/dL
  Insulin AUC: 33500 pM·min
  Total ISR (insulin secretion rate): 213.69 nmol
T2D subjects; 23 g C10 meal
  EGP (endogenous glucose production): 7.00 ± 2.47 μmol · min^−1 · kgffm^−1
  Gluconeogenesis: 40.72 ± 4.00 %
  Glucose clearance: 1.71 ± 0.21 mL/min/kg
  Total Ra (rate of appearance of deuterated glucose): 20.32 ± 2.19 μmol · min^−1 · kgffm^−1
  Glucose AUC: 44200 mg·min/dL
  Insulin AUC: 29500 pM·min
  Total ISR (insulin secretion rate): 142.27 nmol
T2D subjects; type 2 diabetics, C10 enriched meals compared with the standard meal
  EGP, result in words: significantly reduced
[1]; 23 g C10 ingestion
  Delay of plasma C10 peak after 23 g C10 ingestion: 40 min
[1]; oral, meal enriched with C10
  Time of plasma sebacate peak after the ingestion of the meal: 200 min
  Time of plasma sebacate peak from the beginning of the experiment: 320 min
[2]; T2D subjects
  Plasma C10 peak times compared with controls: the peak times were maintained
[2]; T2D subjects vs healthy controls
  Plasma C10 concentration relative to values reached in controls: about 1.5 times
